This is an account of results in US9249145B2, “Heterocyclic derivatives of pyrazol-4-yl-pyrrolo[2,3-d]pyrimidines as janus kinase inhibitors” (Incyte Holdings Corporation, priority 2009, dated 2016).

Counter-ions that a name gives are not always drawn.

The target in experiment [1] is T1, human JAK1 (a.a. 837-1142) (Homo sapiens, UniProt P23458).
T1 construct: The catalytic domains of human JAK1 (a.a. 837-1142); His tag (N); made in house; host or cells: insect cells (baculovirus)
The experiment in a line: In vitro JAK kinase assay (HTRF, phosphorylation of biotinylated peptide), JAK1. It is filed as biochemical. As to conditions: 1 mM ATP; Examples 12-91; read-out: JAK1 IC50 (nM) @ 1 mM ATP. In a few lines:
(§1)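 His-tagged catalytic domains expressed in baculovirus/insect cells; biotinylated peptide (500 nM) phosphorylation in 50 mM Tris pH 7.8, 100 mM NaCl, 5 mM DTT, 0.01% BSA, 1 h room temperature. ATP at Km (JAK1 90 μM, JAK2 30 μM) or 1 mM. EDTA stop, Eu-Py20/SA-APC HTRF read; IC50.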
On the technique in general: Time-resolved FRET reads energy transfer from a long-lived donor to a nearby acceptor.

The next experiment concerns the target T2, Jak2 (a.a. 828-1132) (Homo sapiens, UniProt O60674).
T2 construct: Jak2 (a.a. 828-1132); His tag (N); made in house; host or cells: insect cells (baculovirus)
The experiment in a line: In vitro JAK kinase assay (HTRF, phosphorylation of biotinylated peptide), JAK2. As to conditions: 1 mM ATP; Examples 12-91; read-out: JAK2 IC50 (nM) @ 1 mM ATP. It is filed as biochemical. A digest of the protocol: as §1

T1 sequence (P23458 849-1154): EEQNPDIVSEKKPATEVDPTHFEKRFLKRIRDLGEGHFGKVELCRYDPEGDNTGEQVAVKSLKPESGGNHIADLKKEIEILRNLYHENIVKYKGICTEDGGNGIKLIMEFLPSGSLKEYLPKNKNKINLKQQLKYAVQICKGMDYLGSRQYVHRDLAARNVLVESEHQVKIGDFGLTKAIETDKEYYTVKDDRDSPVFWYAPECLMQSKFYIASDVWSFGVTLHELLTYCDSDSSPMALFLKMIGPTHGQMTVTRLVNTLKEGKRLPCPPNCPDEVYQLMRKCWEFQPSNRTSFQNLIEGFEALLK
T2 sequence (O60674 828-1132): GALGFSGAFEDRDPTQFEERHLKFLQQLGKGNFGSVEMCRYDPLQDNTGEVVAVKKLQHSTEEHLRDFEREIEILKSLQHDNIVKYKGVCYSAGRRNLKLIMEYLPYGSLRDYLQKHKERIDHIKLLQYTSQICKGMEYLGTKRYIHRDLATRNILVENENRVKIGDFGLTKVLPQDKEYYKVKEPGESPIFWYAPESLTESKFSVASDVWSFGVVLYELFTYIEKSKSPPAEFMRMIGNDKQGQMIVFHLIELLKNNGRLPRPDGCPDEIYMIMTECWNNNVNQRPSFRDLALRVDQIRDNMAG

As usually defined, the IC50 is the concentration needed to halve the response being measured. Consider `N#CCC(CN1CCN(C(=O)c2cccs2)CC1)n1cc(-c2ncnc3[nH]ccc23)cn1` (centres unmarked) [Example 42, 3-(4-(7H-pyrrolo[2,3-d]pyrimidin-4-yl)-1H-pyrazol-1-yl)-4-(4-(thiophene-2-carbonyl)piperazin-1-yl)butanenitrile], for which the IC50 in experiment [1] is less than 10 nM; on Jak2 (a.a. 828-1132), 10 to 50 nM.
As to `COc1cc(C(=O)N2CCN(CC(CC#N)n3cc(-c4ncnc5[nH]ccc45)cn3)CC2)ccc1F` (centres unmarked) [Example 43, 3-(4-(7H-pyrrolo[2,3-d]pyrimidin-4-yl)-1H-pyrazol-1-yl)-4-(4-(4-fluoro-3-methoxybenzoyl)piperazin-1-yl)butanenitrile], the IC50 in experiment [1] was less than 10 nM; on Jak2 (a.a. 828-1132), 10 to 50 nM.
The corresponding values for `COc1ccc(C(=O)N2CCN(CC(CC#N)n3cc(-c4ncnc5[nH]ccc45)cn3)CC2)cc1Cl` (centres unmarked) [Example 44, 3-(4-(7H-pyrrolo[2,3-d]pyrimidin-4-yl)-1H-pyrazol-1-yl)-4-(4-(3-chloro-4-methoxybenzoyl)piperazin-1-yl)butanenitrile trifluoroacetate salt] are less than 10 nM and 10 to 50 nM.
The corresponding values for `N#CCC(CN1CCN(C(=O)c2ccc(C(F)(F)F)cc2F)CC1)n1cc(-c2ncnc3[nH]ccc23)cn1` (centres unmarked) [Example 45, 3-(4-(7H-pyrrolo[2,3-d]pyrimidin-4-yl)-1H-pyrazol-1-yl)-4-(4-(2-fluoro-4-(trifluoromethyl)benzoyl)piperazin-1-yl)butanenitrile trifluoroacetate salt] are less than 10 nM and 10 to 50 nM.
As for `N#CCC(CN1CCN(C(=O)c2cc(F)cc(Cl)c2)CC1)n1cc(-c2ncnc3[nH]ccc23)cn1` (centres unmarked) [Example 46, 3-(4-(7H-pyrrolo[2,3-d]pyrimidin-4-yl)-1H-pyrazol-1-yl)-4-(4-(3-chloro-5-fluorobenzoyl)piperazin-1-yl)butanenitrile trifluoroacetate salt], the IC50 in experiment [1] is less than 10 nM; on Jak2 (a.a. 828-1132) it was 10 to 50 nM.
The corresponding values for `Cc1cc(F)ccc1C(=O)N1CCN(CC(CC#N)n2cc(-c3ncnc4[nH]ccc34)cn2)CC1` (centres unmarked) [Example 47, 3-(4-(7H-pyrrolo[2,3-d]pyrimidin-4-yl)-1H-pyrazol-1-yl)-4-(4-(4-fluoro-2-methylbenzoyl)piperazin-1-yl)butanenitrile] are less than 10 nM and 10 to 50 nM.
For the compound `N#CCC(CN1CCN(C(=O)c2ccc(F)c(F)c2F)CC1)n1cc(-c2ncnc3[nH]ccc23)cn1` (centres unmarked) [Example 48, 3-(4-(7H-pyrrolo[2,3-d]pyrimidin-4-yl)-1H-pyrazol-1-yl)-4-(4-(2,3,4-trifluorobenzoyl)piperazin-1-yl)butanenitrile phosphate salt], the IC50 in experiment [1] was less than 10 nM; on Jak2 (a.a. 828-1132), 10 to 50 nM.
The corresponding values for `N#CCC(CN1CCN(C(=O)c2ccc(F)c(OC(F)(F)F)c2)CC1)n1cc(-c2ncnc3[nH]ccc23)cn1` (centres unmarked) [Example 49, 3-(4-(7H-pyrrolo[2,3-d]pyrimidin-4-yl)-1H-pyrazol-1-yl)-4-(4,-(4-fluoro-3-(trifluoromethoxy)benzoyl)piperazin-1-yl)butanenitrile] are 10 to 50 nM and greater than 100 nM.
The corresponding values for `N#CCC(CN1CCN(C(=O)c2ccc(F)c(F)c2)CC1)n1cc(-c2ncnc3[nH]ccc23)cn1` (centres unmarked) [Example 50, 3-(4-(7H-pyrrolo[2,3-d]pyrimidin-4-yl)-1H-pyrazol-1-yl)-4-(4-(3,4-difluorobenzoyl)piperazin-1-yl)butanenitrile] are 10 to 50 nM and 10 to 50 nM.
The corresponding values for `N#CCC(CN1CCN(C(=O)c2cccc(OC(F)(F)F)c2F)CC1)n1cc(-c2ncnc3[nH]ccc23)cn1` (centres unmarked) [Example 51, 3-(4-(7H-pyrrolo[2,3-d]pyrimidin-4-yl)1H-pyrazol-1-yl)-4-(4-(2-fluoro-3-(trifluoromethoxy)benzoyl)piperazin-1-yl)butanenitrile] are 10 to 50 nM and 10 to 50 nM.
Take `COc1cscc1C(=O)N1CCN(CC(CC#N)n2cc(-c3ncnc4[nH]ccc34)cn2)CC1` (centres unmarked) [Example 52, 3-(4-(7H-pyrrolo[2,3-d]pyrimidin-4-yl)-1H-pyrazol-1-yl)-4-(4-(4-methoxythiophene-3-carbonyl)piperazin-1-yl)butanenitrile]: the figures for the IC50 (in experiment [1]; at Jak2 (a.a. 828-1132)) were 10 to 50 nM and 50 to 100 nM, respectively.
With `N#CCC(CN1CCN(C(=O)c2cc(Cl)cc(OC(F)(F)F)c2)CC1)n1cc(-c2ncnc3[nH]ccc23)cn1` (centres unmarked) [Example 53, 3-(4-(7H-pyrrolo[2,3-d]pyrimidin-4-yl)-1H-pyrazol-1-yl)-4-(4-(3-chloro-5-(trifluoromethoxy)benzoyl)piperazin-1-yl)butanenitrile], the IC50 lay in the range of 10 to 50 nM in experiment [1] and 50 to 100 nM on Jak2 (a.a. 828-1132).
The corresponding values for `N#CCC(CN1CCN(C(=O)c2ccc(O)c(Cl)c2)CC1)n1cc(-c2ncnc3[nH]ccc23)cn1` (centres unmarked) [Example 54, 3-(4-(7H-pyrrolo[2,3-d]pyrimidin-4-yl)-1H-pyrazol-1-yl)-4-(4-(3-chloro-4-hydroxybenzoyl)piperazin-1-yl)butanenitrile trifluoroacetate salt] are 10 to 50 nM and 50 to 100 nM.
The corresponding values for `COc1c(F)cc(C(=O)N2CCN(CC(CC#N)n3cc(-c4ncnc5[nH]ccc45)cn3)CC2)cc1F` (centres unmarked) [Example 55, 3-(4-(7H-pyrrolo[2,3-d]pyrimidin-4-yl)-1H-pyrazol-1-yl)-4-(4-(3,5-difluoro-4-methoxybenzoyl)piperazin-1-yl)butanenitrile] are 10 to 50 nM and 50 to 100 nM.
With `N#CCC(CN1CCN(C(=O)c2ccc(C(F)(F)F)c(F)c2)CC1)n1cc(-c2ncnc3[nH]ccc23)cn1` (centres unmarked) [Example 56, 3-(4-(7H-pyrrolo[2,3-d]pyrimidin-4-yl)-1H-pyrazol-1-yl)-4-(4-(3-fluoro-4-(trifluoromethyl)benzoyl)piperazin-1-yl)butanenitrile], the results for the IC50 (in experiment [1]; at Jak2 (a.a. 828-1132)) were 10 to 50 nM and greater than 100 nM, respectively.
For the compound `N#CCC(CN1CCN(C(=O)c2ccc(F)c(C(F)(F)F)c2)CC1)n1cc(-c2ncnc3[nH]ccc23)cn1` (centres unmarked) [Example 57, 3-(4-(7H-pyrrolo[2,3-d]pyrimidin-4-yl)-1H-pyrazol-1-yl)-4-(4-(4-fluoro-3-(trifluoromethyl)benzoyl)piperazin-1-yl)butanenitrile], the IC50 is 10 to 50 nM in experiment [1] and greater than 100 nM on Jak2 (a.a. 828-1132).
`N#CCC(CN1CCN(C(=O)c2ccccn2)CC1)n1cc(-c2ncnc3[nH]ccc23)cn1` (centres unmarked) [Example 58, 3-(4-(7H-pyrrolo[2,3-d]pyrimidin-4-yl)-1H-pyrazol-1-yl)-4-(4-picolinoylpiperazin-1-yl)butanenitrile]: the values for the IC50 (in experiment [1]; at Jak2 (a.a. 828-1132)) were 10 to 50 nM and greater than 100 nM, respectively.
The corresponding values for `N#CCC(CN1CCN(C(=O)c2ccc(F)cc2C(F)(F)F)CC1)n1cc(-c2ncnc3[nH]ccc23)cn1` (centres unmarked) [Example 59] are 10 to 50 nM and greater than 100 nM.
The corresponding values for `N#CCC(CN1CCN(S(=O)(=O)c2ccccc2C#N)CC1)n1cc(-c2ncnc3[nH]ccc23)cn1` (centres unmarked) [Example 60, 2-(4-(2-(4-(7H-pyrrolo[2,3-d]pyrimidin-4-yl)-1H-pyrazol-1-yl)-3-cyanopropyl)piperazin-1-ylsulfonyl)benzonitrile] are less than 10 nM and less than 10 nM.
The corresponding values for `N#CCC(CN1CCN(S(=O)(=O)c2cc(F)cc(F)c2)CC1)n1cc(-c2ncnc3[nH]ccc23)cn1` (centres unmarked) [Example 61, 3-(4-(7H-pyrrolo[2,3-d]pyrimidin-4-yl)-1H-pyrazol-1-yl)-4-(4-(3,5-difluorophenylsulfonyl)piperazin-1-yl)butanenitrile trifluoroacetate salt] are less than 10 nM and less than 10 nM.
In the case of `N#CCC(CN1CCN(S(=O)(=O)c2cc(F)ccc2F)CC1)n1cc(-c2ncnc3[nH]ccc23)cn1` (centres unmarked) [Example 62, 3-(4-(7H-pyrrolo[2,3-d]pyrimidin-4-yl)-1H-pyrazol-1-yl)-4-(4-(2,5-difluorophenylsulfonyl)piperazin-1-yl)butanenitrile trifluoroacetate salt], the IC50 (in experiment [1]; at Jak2 (a.a. 828-1132)) was less than 10 nM each time.
Consider `Cc1ccc(S(=O)(=O)N2CCN(CC(CC#N)n3cc(-c4ncnc5[nH]ccc45)cn3)CC2)nc1` (centres unmarked) [Example 63, 3-(4-(7H-pyrrolo[2,3-d]pyrimidin-4-yl)-1H-pyrazol-1-yl)-4-(4-(5-methylpyridin-2-ylsulfonyl)piperazin-1-yl)butanenitrile], for which the IC50 (in experiment [1]; on Jak2 (a.a. 828-1132)) was less than 10 nM in each case.
For `Cc1cccc(S(=O)(=O)N2CCN(CC(CC#N)n3cc(-c4ncnc5[nH]ccc45)cn3)CC2)n1` (centres unmarked) [Example 64, 3-(4-(7H-pyrrolo[2,3-d]pyrimidin-4-yl)-1H-pyrazol-1-yl)-4-(4-(6-methylpyridin-2-ylsulfonyl)piperazin-1-yl)butanenitrile], the IC50 (in experiment [1]; on Jak2 (a.a. 828-1132)) was less than 10 nM throughout.
On to `N#CCC(CN1CCN(S(=O)(=O)c2cccnc2)CC1)n1cc(-c2ncnc3[nH]ccc23)cn1` (centres unmarked) [Example 65, 3-(4-(7H-pyrrolo[2,3-d]pyrimidin-4-yl)-1H-pyrazol-1-yl)-4-(4-(pyridin-3-ylsulfonyl)piperazin-1-yl)butanenitrile], for which the IC50 was less than 10 nM in experiment [1] and 10 to 50 nM on Jak2 (a.a. 828-1132).
The corresponding values for `N#CCC(CN1CCN(S(=O)(=O)c2ccccc2C(F)(F)F)CC1)n1cc(-c2ncnc3[nH]ccc23)cn1` (centres unmarked) [Example 66, 3-(4-(7H-pyrrolo[2,3-d]pyrimidin-4-yl)-1H-pyrazol-1-yl)-4-(4-(2-(trifluoromethyl)phenylsulfonyl)piperazin-1-yl)butanenitrile] are less than 10 nM and less than 10 nM.
